# Data from US20240309003A1, “HETEROCYCLIC COMPOUNDS AS TRIGGERING RECEPTOR EXPRESSED ON MYELOID CELLS 2 AGONISTS AND METHODS OF USE” (Vigil Neuroscience, Inc., priority 2021, published 2024).
# Target: T1, human TREM2 (Homo sapiens, UniProt Q9NZC2)
# T1 construct: expressed in transfected cells; host or cells: HEK293T
# Test: TREM2 agonist potency by cellular phosphorylation of Syk (AlphaLisa) in HEK293T-hTREM2 cells
# Assay type: cell-based
# Procedure: In Vitro Measurement of Triggering Receptor Expressed on Myeloid Cells 2 Activity Using Cellular Phosphorylation of Spleen Tyrosine Kinase (“Syk”) Assays
# Measurement of TREM2 agonist potency was done using a HEK cell line expressing human TREM2 and DAP12 (HEK293T-hTREM2 cells). Binding of small molecules to, and activation of, TREM2 increases the phosphorylation of Syk. The resultant levels of Syk phosphorylation are measured using a commercial AlphaLisa reagent kit. To perform the assay, HEK-hTREM2 cells were plated at 14,000 cells per well in a 384 well plate, in 25 μL of complete growth media and incubated at 37° C., 5% CO2 for 20-24 hours.
# Prior to the assay, test compounds were diluted in the 384 well plates in assay buffer and allowed to equilibrate for 30 minutes. Growth media was removed from cell plates by inversion on blotting paper, and 25 μL of test articles in assay buffer was added to cells. Cells were incubated for 45 minutes at room temperature. After 45 minutes, assay buffer was removed and 10 μL of lysis buffer was added. Plates were shaken for 20 minutes at 350 RPM at room temperature. After complete lysis, AlphaLisa reagents were added to the lysate, and fluourescence intensity was measured using a Perkin Elmer Envision plate reader. Intensities were used to generate a standard curve, and % activation was calculated. Curve fitting was performed using Prism v9 software, log(agonist) vs response-variable slope (four parameters), and EC50s were calculated from the curve fit.
# This assay may be used to test any of the compounds described herein to assess and characterize a compound's ability to act as an agonist of TREM2.
# [1] = HEK293 cells expressing human TREM2 and DAP12, Table D-2
# [2] = HEK293 cells expressing human TREM2 and DAP12, Table D
# T1 sequence (Q9NZC2 19-230): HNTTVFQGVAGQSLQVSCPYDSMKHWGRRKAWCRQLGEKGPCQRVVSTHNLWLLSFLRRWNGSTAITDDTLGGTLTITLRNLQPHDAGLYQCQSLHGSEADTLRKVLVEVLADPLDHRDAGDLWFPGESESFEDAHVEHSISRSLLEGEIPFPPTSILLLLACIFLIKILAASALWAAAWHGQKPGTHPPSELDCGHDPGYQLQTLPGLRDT
# T1 sequence (O43914 22-113 partner): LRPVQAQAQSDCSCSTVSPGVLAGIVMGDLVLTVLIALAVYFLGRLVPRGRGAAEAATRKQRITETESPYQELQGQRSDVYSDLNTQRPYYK
SMILES,EC50 [1] [nM],EC50 [2] [nM]
"Cc1cc([C@@H]2C[C@H](c3cc(-c4ccc(Cl)cc4F)c4cc(C)c(C)nc4n3)CCO2)ccn1 [Example 185, 5-(4-chloro-2-fluorophenyl)-2,3-dimethyl-7-((2S,4R)-2-(2-methylpyridin-4-yl)tetrahydro-2H-pyran-4-yl)-1,8-naphthyridine]",,500 to 3000
"Cc1cnc2c(-c3ccc(F)cc3F)nc(N3C[C@@H](c4cnn(C5CC5)c4)O[C@@H](C)C3)nc2n1 [Example 114, (2R,6S)-2-(1-cyclopropyl-1H-pyrazol-4-yl)-4-(4-(2,4-difluorophenyl)-7-methylpteridin-2-yl)-6-methylmorpholine]",,50 to 500
Cc1nc2nc(C3CCOC(c4nc(C5CC5)n[nH]4)C3)nc(-c3ccc(F)cc3F)c2nc1C (stereo not drawn) [Example 169],,500 to 3000
"Cc1nc2nc(C3CCOC(c4cn[nH]c4)C3)nc(-c3ccc(F)cc3F)c2nc1C (stereo not drawn) [Example 167, 2-(2-(1H-pyrazol-4-yl)tetrahydro-2H-pyran-4-yl)-4-(2,4-difluorophenyl)-6,7-dimethylpteridine]",,50 to 500
"Cc1nc2nc(N3CCO[C@@H](c4cnn(C5CC5)c4)C3)nc(-c3ccc4c(c3)CC4)c2nc1C [Example 240, (S)-4-(4-(bicyclo[4.2.0]octa-1,3,5-trien-3-yl)-6,7-dimethylpteridin-2-yl)-2-(1-cyclopropyl-1H-pyrazol-4-yl)morpholine]",,50 to 500
"Cc1cc([C@H]2C[C@@H](c3nc(-c4ccc(Cl)c(F)c4F)c4ncc(C)nc4n3)CCO2)ccn1 [Example 130, 4-(4-chloro-2,3-difluorophenyl)-7-methyl-2-((2R,4S)-2-(2-methylpyridin-4-yl)tetrahydro-2H-pyran-4-yl)pteridine]",,< 50
"Cc1nc2nc([C@@H]3CCO[C@H](c4cnn(C5CC5)n4)C3)nc(-c3ccc(F)cc3F)c2nc1C [Example 154, 2-((2S,4R)-2-(2-cyclopropyl-2H-1,2,3-triazol-4-yl)tetrahydro-2H-pyran-4-yl)-4-(2,4-difluorophenyl)-6,7-dimethylpteridine]",,50 to 500
"[2H]C([2H])([2H])c1nc2nc([C@@H]3CCO[C@H](c4cnn(C([2H])([2H])[2H])c4)C3)nc(-c3ccc(C)cc3)c2nc1C([2H])([2H])[2H] [Example 172, 6,7-bis(methyl-d3)-2-((2S,4R)-2-(1-(methyl-d3)-1H-pyrazol-4-yl)tetrahydro-2H-pyran-4-yl)-4-(p-tolyl)pteridine]",,3000 to 100000
"Cc1nc2nc(N3CCOC(c4cc[nH]c(=O)c4)C3)nc(-c3ccc(C(F)(F)F)nc3)c2nc1C (stereo not drawn) [Example 194, 4-(4-(6,7-dimethyl-4-(6-(trifluoromethyl)pyridin-3-yl)pteridin-2-yl)morpholin-2-yl)pyridin-2(1H)-one]",,< 50
"Cc1ccc(-c2nc(N3C[C@@H](C)O[C@@H](c4cnn(C5CC5)c4)C3)nc3nc(C)c(C)nc23)o1 [Example 243, (2S,6R)-2-(1-cyclopropyl-1H-pyrazol-4-yl)-4-(6,7-dimethyl-4-(5-methylfuran-2-yl)pteridin-2-yl)-6-methylmorpholine]",,50 to 500
"[2H]C([2H])([2H])c1ccc(-c2nc([C@@H]3CCO[C@H](c4cnn(C([2H])([2H])[2H])c4)C3)nc3nc(C([2H])([2H])[2H])c(C([2H])([2H])[2H])nc23)cc1 [Example 174, 6,7-bis(methyl-d3)-2-((2S,4R)-2-(1-(methyl-d3)-1H-pyrazol-4-yl)tetrahydro-2H-pyran-4-yl)-4-(4-(methyl-d3)phenyl)pteridine]",,3000 to 100000
"Cc1nc2nc([C@H]3CCO[C@@H](c4cnn(C5CC5)c4)C3)nc(C3CCC(F)(F)CC3)c2nc1C [Example 180, 2-((2R,4S)-2-(1-cyclopropyl-1H-pyrazol-4-yl)tetrahydro-2H-pyran-4-yl)-4-(4,4-difluorocyclohexyl)-6,7-dimethylpteridine]",,< 50
"Cc1ccc2c(-c3ccc(Cl)c(F)c3F)nc([C@H]3CCO[C@@H](c4cnn(C5CC5)c4)C3)nc2n1 [Example 218, 4-(4-chloro-2,3-difluorophenyl)-2-((2R,4S)-2-(1-cyclopropyl-1H-pyrazol-4-yl)tetrahydro-2H-pyran-4-yl)-7-methylpyrido[2,3-d]pyrimidine]",,< 50

# Further lines, results first:
EC50 [1] [nM],EC50 [2] [nM],SMILES
< 50,,"Cc1nc2nc([C@H]3CCO[C@@H](c4cnn(C5CC5)c4)C3)nc(-c3ccc(C(F)(F)F)cc3F)c2nc1C(F)F [Example I-1593, 2-[(2R,4S)-2-(1-cyclopropylpyrazol-4-yl)tetrahydropyran-4-yl]-6-(difluoromethyl)-4-[2-fluoro-4-(trifluoromethyl)phenyl]-7-methyl-pteridine]"
< 50,,"Cc1nc2nc([C@H]3CCO[C@@H](c4cnn(C5CC5)c4)C3)nc(-c3c(F)cc(C(F)(F)F)cc3F)c2nc1C (stereo in doubt) [Example I-1391, 4-[2,6-difluoro-4-(trifluoromethyl)phenyl]-6,7-dimethyl-2-[(2R,4S)-2-(1-cyclopropylpyrazol-4-yl)tetrahydropyran-4-yl]pteridine]"
< 50,,"Cc1nc2nc(N3C[C@@H](C4CC4)O[C@@H](c4cnn(C)c4)C3)nc(-c3ccc(F)cc3F)c2nc1C [Example I-1673, (2R,6S)-2-cyclopropyl-4-[4-(2,4-difluorophenyl)-6,7-dimethyl-pteridin-2-yl]-6-(1-methylpyrazol-4-yl)morpholine]"
< 50,,"Cc1nc2nc(N3C[C@@H](c4cnn(C5CC5)c4)O[C@@H](C(F)F)C3)nc(-c3ccc(C(F)(F)F)cc3F)c2nc1C [Example I-1638, (2R,6R)-2-(1-cyclopropylpyrazol-4-yl)-6-(difluoromethyl)-4-[4-[2-fluoro-4-(trifluoromethyl)phenyl]-6,7-dimethyl-pteridin-2-yl]morpholine]"
< 50,,"Cc1nc2cc([C@H]3CCO[C@@H](c4cnn(C5CC5)c4)C3)nc(-c3ccc(F)cc3F)c2nc1C(F)F [Example I-1552, 7-((2R,4S)-2-(1-cyclopropyl-1H-pyrazol-4-yl)tetrahydro-2H-pyran-4-yl)-3-(difluoromethyl)-5-(2,4-difluorophenyl)-2-methylpyrido[3,4-b]pyrazine]"
< 50,,"Cc1nc2nc(N3C[C@@H](C)O[C@@H](c4cnn(C5CC5)c4F)C3)nc(-c3ccc(F)cc3F)c2nc1C [Example I-1401, (2S,6R)-2-(1-cyclopropyl-5-fluoro-pyrazol-4-yl)-4-[4-(2,4-difluorophenyl)-6,7-dimethyl-pteridin-2-yl]-6-methyl-morpholine]"
< 50,,"Cc1nc2nc(N3C[C@@H](C)O[C@@H](c4cnn(CCO)c4)C3)nc(-c3ccc(Cl)cc3F)c2nc1C [Example I-1686, 2-(4-((2S,6R)-4-(4-(4-chloro-2-fluorophenyl)-6,7-dimethylpteridin-2-yl)-6-methylmorpholin-2-yl)-1H-pyrazol-1-yl)ethan-1-ol]"
< 50,,"COc1nc2c(-c3ccc(C(F)(F)F)cc3F)nc([C@H]3CCO[C@@H](c4cnn(C5CC5)c4)C3)nc2nc1C (stereo in doubt) [Example I-1691, 2-((2R,4S)-2-(1-cyclopropyl-1H-pyrazol-4-yl)tetrahydro-2H-pyran-4-yl)-4-(2-fluoro-4-(trifluoromethyl)phenyl)-6-methoxy-7-methylpteridine]"
< 50,,"COCn1cc([C@H]2CN(c3nc(-c4ccc(F)cc4F)c4nc(C)c(C)nc4n3)C[C@@H](C3CC3)O2)cn1 [Example I-1736, (2R,6S)-2-cyclopropyl-4-[4-(2,4-difluorophenyl)-6,7-dimethyl-pteridin-2-yl]-6-[1-(methoxymethyl)pyrazol-4-yl]morpholine]"
500 to 3000,,"Cc1nc2nc([C@H]3CCO[C@@H](c4cnn(C5CC5)c4)C3)nc(-c3ccc(C4CCC4)cc3F)c2nc1C [Example I-1182, 4-(4-cyclobutyl-2-fluoro-phenyl)-2-[(2R,4S)-2-(1-cyclopropylpyrazol-4-yl)tetrahydropyran-4-yl]-6,7-dimethyl-pteridine]"
< 50,,Cc1nc2nc(N3C[C@@H](C4CC4)O[C@@H](c4cnn(C5CC5)c4)C3)nc(-c3ccc(F)cc3F)c2nc1C [Example I-1381]
< 50,,"Cc1nc2nc([C@H]3CCO[C@@H](c4cnn(C5CC5)c4)C3)nc(-c3ccc(C(F)F)cc3F)c2nc1C [Example I-1216, 2-[(2R,4S)-2-(1-cyclopropylpyrazol-4-yl)tetrahydropyran-4-yl]-4-[4-(difluoromethyl)-2-fluoro-phenyl]-6,7-dimethyl-pteridine]"
3000 to 100000,,"Cc1nc2c(-c3ccc(C(F)(F)F)cc3F)cn([C@H]3CCO[C@@H](c4cnn(C5CC5)c4)C3)c(=O)c2nc1C [Example I-1567, 6-[(2R,4S)-2-(1-cyclopropyl-1H-pyrazol-4-yl)tetrahydro-2H-pyran-4-yl]-8-[2-fluoro-4-(trifluoromethyl)phenyl]-2,3-dimethylpyrido[3,4-b]pyrazin-5(6H)-one]"
50 to 500,,"Cc1nc2nc([C@@H]3CCO[C@H](c4cnc(C5CC5)o4)C3)nc(-c3ccc(F)cc3F)c2nc1C [Example I-1700, 2-cyclopropyl-5-[(2S,4R)-4-[4-(2,4-difluorophenyl)-6,7-dimethyl-pteridin-2-yl]tetrahydropyran-2-yl]oxazole]"
